Test results reported in patent publication US20230167105A1, “BCL-2 PROTEIN INHIBITORS” (Recurium IP Holdings, LLC, priority 2020, published 2023).
pIC50: −log10 of the molar value.

system: MOLT-4 cells; assay: MOLT-4 Cell Proliferation Assay (CellTiter-Glo); format: cell-based; conditions: Homo sapiens, 72 h, read-out: MOLT-4 CTG IC50
Protocol: Cell proliferation was measured using the CellTiter-Glo® Luminescent Cell Viability Assay. The assay involved the addition of a single reagent (CellTiter-Glo® Reagent) directly to cells cultured in serum-supplemented medium. MOLT-4 cells (ATCC, CRL-1582) were cultured according to ATCC recommendations and were seeded at 50,000 cells per well.
Each compound evaluated was prepared as a DMSO stock solution (10 mM). Compounds were tested in duplicate on each plate, with a 10-point serial dilution curve (1:3 dilution). The highest compound concentration was 10 μM (final), with a 0.1% final DMSO concentration. Plates were then incubated at 37° C., 5% CO2 for 72 h, cell plates were equilibrated at rt for approximately 30 mins. An equi-volume amount of CellTiter-Glo® Reagent (100 μL) was added to each well. Plates were mixed for 2 mins on an orbital shaker to induce cell lysis and then incubated at rt for 10 mins to stabilize the luminescent signal. Luminescence was recorded using a Envision plate reader according to CellTiter-Glo protocol. IC50 of each compound was calculated using GraphPad Prism by nonlinear regression analysis.

Going from `CC1(C)CCC(CN2CCN(c3ccc(C(=O)NS(=O)(=O)c4ccc(N[C@H](CCN5CCN(CCCCCNc6cccc7c6C(=O)N(C6CCC(=O)NC6=O)C7=O)CC5)CSc5ccccc5)c(S(=O)(=O)C(F)(F)F)c4)cc3)CC2)=C(C23CC(C(F)F)(C2)C3)C1` (stereo partly drawn) [Example 2, 4-(4-((2-(3-(difluoromethyl)bicyclo[1.1.1]pentan-1-yl)-4,4-dimethylcyclohex-1-en-1-yl)methyl)piperazin-1-yl)-N-((4-(((2R)-4-(4-(5-((2-(2,6-dioxopiperidin-3-yl)-1,3-dioxoisoindolin-4-yl)amino)pentyl)piperazin-1-yl)-1-(phenylthio)butan-2-yl)amino) ((trifluoromethyl)sulfonyl)phenyl)sulfonyl)benzamide] to `CC1(C)CCC(CN2CCN(c3ccc(C(=O)NS(=O)(=O)c4ccc(N[C@H](CCN5CCN(CCCCCc6cccc7c6C(=O)N(C6CCC(=O)NC6=O)C7=O)CC5)CSc5ccccc5)c(S(=O)(=O)C(F)(F)F)c4)cc3)CC2)=C(C23CC(C(F)F)(C2)C3)C1` (stereo partly drawn) [Example 22, 4-(4-((2-(3-(difluoromethyl)bicyclo[1.1.1]pentan-1-yl)-4,4-dimethylcyclohex-1-en-1-yl)methyl)piperazin-1-yl)-N-((4-(((2R)-4-(4-(5-(2-(2,6-dioxopiperidin-3-yl)-1,3-dioxoisoindolin-4-yl)pentyl)piperazin-1-yl)-1-(phenylthio)butan-2-yl)amino)-3-((trifluoromethyl)sulfonyl)phenyl)sulfonyl)benzamide], the pIC50 falls from no less than 7.30 to no more than 6.82. The first is the more potent here.

`Cc1ncsc1-c1ccc([C@H](C)NC(=O)[C@@H]2C[C@@H](O)CN2C(=O)[C@@H](NC(=O)CCCCCN2CCN(CC[C@H](CSc3ccccc3)Nc3ccc(S(=O)(=O)NC(=O)c4ccc(N5CCN(CC6=C(C78CC(C)(C7)C8)CC(C)(C)CC6)CC5)cc4)cc3S(=O)(=O)C(F)(F)F)CC2)C(C)(C)C)cc1` [Example 26, (2S,4R)-1-((S)-2-(6-(4-((R)-3-((4-(N-(4-(4-((4,4-dimethyl-2-(3-methylbicyclo[1.1.1]pentan-1-yl)cyclohex-1-en-1-yl)methyl)piperazin-1-yl)benzoyl)sulfamoyl)-2-((trifluoromethyl)sulfonyl)phenyl)amino)-4-(phenylthio)butyl)piperazin-1-yl)hexanamido)-3,3-dimethylbutanoyl)-4-hydroxy-N—((S)-1-(4-(4-methylthiazol-5-yl)phenyl)ethyl)pyrrolidine-2-carboxamide] and `CCC12CC(C3=C(CN4CCN(c5ccc(C(=O)NS(=O)(=O)c6ccc(N[C@H](CCN7CCN(C(=O)CCCCCC(=O)N[C@H](C(=O)N8C[C@H](O)C[C@H]8C(=O)N[C@@H](C)c8ccc(-c9scnc9C)cc8)C(C)(C)C)CC7)CSc7ccccc7)c(S(=O)(=O)C(F)(F)F)c6)cc5)CC4)CCC(C)(C)C3)(C1)C2` [Example 14, (2S,4R)-1-((S)-2-(7-(4-((R)-3-((4-(N-(4-(4-((2-(3-ethylbicyclo[1.1.1]pentan-1-yl)-4,4-dimethylcyclohex-1-en-1-yl)methyl)piperazin-1-yl)benzoyl)sulfamoyl)-2-((trifluoromethyl)sulfonyl)phenyl)amino)-4-(phenylthio)butyl)piperazin-1-yl)-7-oxoheptanamido)-3,3-dimethylbutanoyl)-4-hydroxy-N—((S)-1-(4-(4-methylthiazol-5-yl)phenyl)ethyl)pyrrolidine-2-carboxamide] cannot be ordered by pIC50: no more than 6.82 for the first, 6.82 to 7.30 for the second.

`CC1(C)CCC(CN2CCN(c3ccc(C(=O)NS(=O)(=O)c4ccc(N[C@H](CCN5CCN(CCCCCNc6cccc7c6CN(C6CCC(=O)NC6=O)C7=O)CC5)CSc5ccccc5)c(S(=O)(=O)C(F)(F)F)c4)cc3)CC2)=C(C23CC(C(F)F)(C2)C3)C1` (stereo partly drawn) [Example 15, 4-[4-[[2-[3-(difluoromethyl)-1-bicyclo[1.1.1]pentanyl]-4,4-dimethyl-cyclohexen-1-yl]methyl]piperazin-1-yl]-N-[4-[[(1R)-3-[4-[5-[[2-(2,6-dioxo-3-piperidyl)-1-oxo-isoindolin-4-yl]amino]pentyl]piperazin-1-yl]-1-(phenylsulfanylmethyl)propyl]amino]-3-(trifluoromethylsulfonyl)phenyl]sulfonyl-benzamide] and `CC1(C)CCC(CN2CCN(c3ccc(C(=O)NS(=O)(=O)c4ccc(N[C@H](CCN5CCN(CCCC#Cc6cccc7c6CN(C6CCC(=O)NC6=O)C7=O)CC5)CSc5ccccc5)c(S(=O)(=O)C(F)(F)F)c4)cc3)CC2)=C(C23CC(C(F)F)(C2)C3)C1` (stereo partly drawn) [Example 29, 4-(4-((2-(3-(difluoromethyl)bicyclo[1.1.1]pentan-1-yl)-4,4-dimethylcyclohex-1-en-1-yl)methyl)piperazin-1-yl)-N-((4-(((2R)-4-(4-(5-(2-(2,6-dioxopiperidin-3-yl)-1-oxoisoindolin-4-yl)pent-4-yn-1-yl)piperazin-1-yl)-1-(phenylthio)butan-2-yl)amino)-3-((trifluoromethyl)sulfonyl)phenyl)sulfonyl)benzamide] cannot be ordered by pIC50: 6.82 to 7.30 for the first, no less than 7.30 for the second.

`Cc1ncsc1-c1ccc([C@H](CC(=O)NCCCCCC(=O)N2CCN(CC[C@H](CSc3ccccc3)Nc3ccc(S(=O)(=O)NC(=O)c4ccc(N5CCN(CC6=C(C78CC(C(F)F)(C7)C8)CC(C)(C)CC6)CC5)cc4)cc3S(=O)(=O)C(F)(F)F)CC2)NC(=O)[C@@H]2C[C@@H](O)CN2C(=O)[C@@H](NC(=O)C2(F)CC2)C(C)(C)C)cc1` [Example 47] and `Cc1ncsc1-c1ccc([C@H](C)NC(=O)[C@@H]2C[C@@H](O)CN2C(=O)[C@@H](NC(=O)CCCCC(=O)N2CCN(CC[C@H](CSc3ccccc3)Nc3ccc(S(=O)(=O)NC(=O)c4ccc(N5CCN(CC6=C(C78CC(C(F)F)(C7)C8)CC(C)(C)CC6)CC5)cc4)cc3S(=O)(=O)C(F)(F)F)CC2)C(C)(C)C)cc1` [Example 1, (2S,4R)-1-((S)-2-(6-(4-((R)-3-((4-(N-(4-(4-((2-(3-(difluoromethyl)bicyclo[1.1.1]pentan-1-yl)-4,4-dimethylcyclohex-1-en-1-yl)methyl)piperazin-1-yl)benzoyl)sulfamoyl)-2-((trifluoromethyl)sulfonyl)phenyl)amino)-4-(phenylthio)butyl)piperazin-1-yl)-6-oxohexanamido)-3,3-dimethylbutanoyl)-4-hydroxy-N—((S)-1-(4-(4-methylthiazol-5-yl)phenyl)ethyl)pyrrolidine-2-carboxamide] cannot be ordered by pIC50: no more than 6.82 for the first, no more than 6.82 for the second.

`CN(CCCCCNc1cccc2c1C(=O)N(C1CCC(=O)NC1=O)C2=O)CC[C@H](CSc1ccccc1)Nc1ccc(S(=O)(=O)NC(=O)c2ccc(N3CCN(CC4=C(C56CC(C(F)F)(C5)C6)CC(C)(C)CC4)CC3)cc2)cc1S(=O)(=O)C(F)(F)F` (stereo partly drawn) [Example 20, 4-(4-((2-(3-(difluoromethyl)bicycle[1.1.1]pentan-1-yl)-4,4-dimethylcyclohex-1-en-1-yl)methyl)piperazin-1-yl)-N-((4-(((2R)-4-((5-((2-(2,6-dioxopiperidin-3-yl)-1,3-dioxoisoindolin-4-yl)amino)pentyl)(methyl)amino)-1-(phenylthio)butan-2-yl)amino)-3-((trifluoromethyl)sulfonyl)phenyl)sulfonyl)benzamide] and `CC1(C)CCC(CN2CCN(c3ccc(C(=O)NS(=O)(=O)c4ccc(N[C@H](CCN5CCN(CCCCCOc6cccc7c6C(=O)N(C6CCC(=O)NC6=O)C7=O)CC5)CSc5ccccc5)c(S(=O)(=O)C(F)(F)F)c4)cc3)CC2)=C(C23CC(C(F)F)(C2)C3)C1` (stereo partly drawn) [Example 3, 4-(4-((2-(3-(difluoromethyl)bicyclo [1.1.1]pentan-1-yl)-4,4-dimethylcyclohex-1-en-1-yl)methyl)piperazin-1-yl)-N-((4-(((2R)-4-(4-(5-((2-(2,6-dioxopiperidin-3-yl)-1,3-dioxoisoindolin-4-yl)oxy)pentyl)piperazin-1-yl)-1-(phenylthio)butan-2-yl)amino)-3-((trifluoromethyl)sulfonyl)phenyl)sulfonyl)benzamide] cannot be ordered by pIC50: no less than 7.30 for the first, no less than 7.30 for the second.

`CC1(C)CCC(CN2CCN(c3ccc(C(=O)NS(=O)(=O)c4ccc(N[C@H](CCN5CCN(CCCCc6ccc7c(c6)C(=O)N(C6CCC(=O)NC6=O)C7=O)CC5)CSc5ccccc5)c(S(=O)(=O)C(F)(F)F)c4)cc3)CC2)=C(C23CC(C(F)F)(C2)C3)C1` (stereo partly drawn) [Example 17, 4-(4-((2-(3-(difluoromethyl)bicyclo[1.1.1]pentan-1-yl)-4,4-dimethylcyclohex-1-en-1-yl)methyl)piperazin-1-yl)-N-((4-(((2R)-4-(4-(4-(2-(2,6-dioxopiperidin-3-yl)-1,3-dioxoisoindolin-5-yl)butyl)piperazin-1-yl)-1-(phenylthio)butan-2-yl)amino)-3-((trifluoromethyl)sulfonyl)phenyl)sulfonyl)benzamide] and `CC1(C)CCC(CN2CCN(c3ccc(C(=O)NS(=O)(=O)c4ccc(N[C@H](CCN5CCN(CCCNc6ccc7c(c6)C(=O)N(C6CCC(=O)NC6=O)C7=O)CC5)CSc5ccccc5)c(S(=O)(=O)C(F)(F)F)c4)cc3)CC2)=C(C23CC(C(F)F)(C2)C3)C1` (stereo partly drawn) [Example 12, 4-[4-[[2-[3-(difluoromethyl)-1-bicyclo[1.1.1]pentanyl]-4,4-dimethyl-cyclohexen-1-yl]methyl]piperazin-1-yl]-N-[4-[[(1R)-3-[4-[3-[[2-(2,6-dioxo-3-piperidyl)-1,3-dioxo-isoindolin-5-yl]amino]propyl]piperazin-1-yl]-1-(phenylsulfanylmethyl)propyl]amino]-3-(trifluoromethylsulfonyl)phenyl]sulfonyl-benzamide] cannot be ordered by pIC50: no less than 7.30 for the first, no less than 7.30 for the second.
